For data set [1], the system named is C57BL/6J mice. Briefly: Insulin tolerance test (ITT). The format is in vivo. Conditions: FIG. 6. The method, then: (§1) Six-week-old male C57BL/6J mice were housed in a temperature-and relative humidity-controlled room (22±2° C., 55±5%) with a 12 h light-dark cycle and free access to food and water. For chronic anti-obesity studies, all mice were fed the high-fat diet (HFD, 60% calories from fat, 20% calories from protein, 20% calories from carbohydrate) for 8 weeks. At 14 weeks of age, all mice were randomly divided into 3 groups of 10 animals: (1) non-supplement group (Con Food only, Group 1); (2) DHB supplement group (DHB+Food. 50 mg/kg, Group 2); (3) DHB supplement group (DHB+Food, 100 mg/kg, Group 3). The mice in group 2 and group 3 were intraperitoneal injection (i.p.) administrated with DHB in normal saline solution daily for 6 weeks between 9:30 and 11:30 am, and food and water were given ad libitum. An insulin tolerance test (ITT) was performed by using a glucose analyzer in the 6-h fasting mice in the 5th week of the supplementation. The glucose concentrations were measured by venous bleeding at 0, 15, 30, 60 and 120 min after an i.p. injection of human insulin at 1 U/kg.

The subject of data set [2] is C57BL/6J mice. Nature of the data set: Rectal temperature in the cold room. Type of data set: in vivo. Conditions: cold room 4-8° C.; 9th and 14th week; FIG. 15. The method, then: as §1, with “libitum.” for “libitum. An insulin tolerance test (ITT) was performed by using a glucose analyzer in the 6-h fasting mice in the 5th week of the supplementation. The glucose concentrations were measured by venous bleeding at 0, 15, 30, 60 and 120 min after an i.p. injection of human insulin at 1 U/kg.”

The conditions of data set [3]: in vitro; cited from earlier work.
For data set [4], the system named is C57BL/6J mice. Briefly: Plasma TC, TG, LDL, VLDL measured with kits in high-fat diet mice. Type of data set: in vivo. The method, then:
Six-week-old male C57BL/6J mice were housed in a temperature-and relative humidity-controlled room (22±2° C., 55±5%) with a 12 h light-dark cycle and free access to food and water. For chronic anti-obesity studies, all mice were fed the high-fat diet (HFD, 60% calories from fat, 20% calories from protein, 20% calories from carbohydrate) for 8 weeks. At 14 weeks of age, all mice were randomly divided into 3 groups of 10 animals: (1) non-supplement group (Con Food only, Group 1); (2) DHB supplement group (DHB+Food. 50 mg/kg, Group 2); (3) DHB supplement group (DHB+Food, 100 mg/kg, Group 3). After an eight-week induction, the mice in group I were intraperitoneal injection (i.p.) administrated with normal saline between 9:30 and 11:30 am, and food and water were given ad libitum. The mice in group 2 and group 3 were intraperitoneal injection (i.p.) administrated with DHB in normal saline solution daily for 6 weeks between 9:30 and 11:30 am, and food and water were given ad libitum. The total experimental time is 14 weeks, including two periods: an eight-week induction period and a subsequent six-week supplement period. Plasma total cholesterol (TC), triglyceride (TG), low-density lipoprotein (LDL), and very low-density lipoprotein (VLDL) were measured using corresponding kits according to the manufacturers' instructions.

Data set [5] deals with C57BL/6J mice. Briefly: i.p. glucose tolerance test (GTT) in obese mice. Type of data set: in vivo. The note with it: 4th week of supplementation; glucose 0.75 g/kg i.p.; 0-120 min; especially higher dose; FIG. 5. As to the method: as §1, with “libitum.” for “libitum. An insulin tolerance test (ITT) was performed by using a glucose analyzer in the 6-h fasting mice in the 5th week of the supplementation. The glucose concentrations were measured by venous bleeding at 0, 15, 30, 60 and 120 min after an i.p. injection of human insulin at 1 U/kg.”

For the next data set, the system named is BAT. Briefly: 18F-FDG uptake in BAT by PET/CT. Type of data set: in vivo, mice. The note with it: PET/CT 60 min after tracer; fasted overnight; FIG. 14. As to the method:
as §1, with “[…] [formula]” for “An insulin tolerance test (ITT) was performed by using a glucose analyzer in the 6-h fasting mice in the 5th week of the supplementation. The glucose concentrations were measured by venous bleeding at 0, 15, 30, 60 and 120 min after an i.p. injection of human insulin at 1 U/kg.”

In the next data set the test system is UCP1 and PGC-1α. Briefly: mRNA levels of brown fat-enriched genes in adipose tissues (inguinal WAT) by real-time PCR. Type of data set: in vivo, mice. As to the method: Six-week-old male C57BL/6J mice were housed in a temperature-and relative humidity-controlled room (22±2° C., 55±5%) with a 12 h light-dark cycle and free access to food and water. For chronic anti-obesity studies, all mice were fed the high-fat diet (HFD, 60% calories from fat, 20% calories from protein, 20% calories from carbohydrate) for 8 weeks.
At 14 weeks of age, all mice were randomly divided into 3 groups of 10 animals: (1) non-supplement group (Con Food only, Group 1); (2) DHB supplement group (DHB+Food. 50 mg/kg, Group 2); (3) DHB supplement group (DHB+Food, 100 mg/kg, Group 3).
The mice in group 2 and group 3 were intraperitoneal injection (i.p.) administrated with DHB in normal saline solution daily for 6 weeks between 9:30 and 11:30 am, and food and water were given ad libitum.
At the end of the study, all mice were anesthetized with chloral hydrate, all relevant tissues like inguinal and perirenal adipose were dissected, weighed, immediately frozen in liquid nitrogen, and stored at −80° C.
The mRNA levels of brown fat-enriched genes such as UCP1 and PGC-1α from adipose tissues (like inguinal WAT) were determined by real-time PCR analysis.
(In general: Real-time PCR tracks product formation cycle by cycle.)

The conditions of data set [6]: mice, including mice lacking intestinal bacteria needed to break down BBR; cited from earlier work.
Data set [7] deals with C57BL/6J mice. Nature of the data set: Energy expenditure by comprehensive lab animal monitoring system (CLAMS), indirect calorimeter. Type of data set: in vivo. The method, then: Six-week-old male C57BL/6J mice were housed in a temperature-and relative humidity-controlled room (22±2° C., 55±5%) with a 12 h light-dark cycle and free access to food and water. For chronic anti-obesity studies, all mice were fed the high-fat diet (HFD, 60% calories from fat, 20% calories from protein, 20% calories from carbohydrate) for 8 weeks. At 14 weeks of age, all mice were randomly divided into 3 groups of 10 animals: (1) non-supplement group (Con Food only, Group 1); (2) DHB supplement group (DHB+Food. 50 mg/kg, Group 2); (3) DHB supplement group (DHB+Food, 100 mg/kg, Group 3). The mice in group 2 and group 3 were intraperitoneal injection (i.p.) administrated with DHB in normal saline solution daily for 6 weeks between 9:30 and 11:30 am, and food and water were given ad libitum. A key factor for controlling energy homoeostasis is the balance between caloric intake and energy expenditure. We analyzed the actions of DHB on energy expenditure using comprehensive lab animal monitoring system (CLAMS). Metabolic analysis was conducted between 8:30 am and 7:30 pm at the last week of experiment to identify […]. O2 consumption, CO2 production, and locomotor activity were measured using a 16-chamber indirect calorimeter. The mice were acclimated to the system for 20-24 h, and measurement of VO2 and VCO2 was performed during the next 24 h. The mice were maintained at 24° C. under a 12 h light/dark cycle. Food and water were available ad libitum. Voluntary activity was derived from the x-axis beam breaks monitored every 15 min. Heat production (energy expenditure) was calculated using the following equation: [formula] where heat is measured in kcal h^−1, VO2 is measured in litres kg^−1 h^−1 and body weight is measured in kg.

In data set [8] the test system is C57BL/6J mice. Briefly: Body weight and fat mass by nuclear magnetic resonance body composition analyzer. The format is in vivo. As to the method: as §1, with “The body weight and fat mass of all mice were” for “An insulin tolerance test (ITT) was”, “the nuclear magnetic resonance body composition” for “using a glucose”, “analyzer by Nuclear Magnetic Resonance Body Composition Analyzer” for “analyzer”, “accordance with manufacturer's instruction. The body weight and fat mass were tested weekly (9-14 weeks) and at 9th and 14th” for “the 6-h fasting mice in the 5th”, “before supplementation” for “of the supplementation. The glucose concentrations were measured by venous bleeding at 0, 15, 30, 60”, “feeding, respectively.” for “120 min after an i.p. injection of human insulin at 1 U/kg.”

A further data set concerns UCP1, PRDM16 and PGC-1α. Nature of the data set: Expression levels of UCP1, PRDM16 and PGC-1α (FIG. 10). The format is in vivo. The note with it: relative to mice without DHB. The method, then: as §1, with “libitum.” for “libitum. An insulin tolerance test (ITT) was performed by using a glucose analyzer in the 6-h fasting mice in the 5th week of the supplementation. The glucose concentrations were measured by venous bleeding at 0, 15, 30, 60 and 120 min after an i.p. injection of human insulin at 1 U/kg.”

For another data set, the system named is brown adipocyte. The note with it: by increasing transcription of PRDM16 via AMPK activation and PGC-1α recruitment; cited from earlier work.
The next data set relates to obese db/db mice. The note with it: cited from earlier work.
[9] abbreviates: 100 mg/kg compared with 50 mg/kg.
Setting [10] is: adipose tissue (inguinal WAT), real-time PCR, relative to mice without DHB, FIG. 9.

With `COc1ccc2c(c1OC)CN1CCc3cc4c(cc3C1=C2)OCO4` [DHB, dihydroberberine], the “insulin tolerance test result, higher-dose group” value in the data set with C57BL/6J mice [1] (setting [9]) is on record as “better result”. Further, the “insulin tolerance test result” value in the data set on C57BL/6J mice [1] (5th week of supplementation, 6-h fasting, human insulin 1 U/kg i.p.) is reported as “ameliorated glucose tolerance”. For the same compound, the rectal temperature result in the data set with C57BL/6J mice [2] is given as “higher”. For the same compound, the “intestinal absorption rate relative to BBR” value in data set [3] was “five times higher”. The “improving biomarkers related to lipid mobilization, higher dose than lower dose” value in the data set with C57BL/6J mice [4] (setting [9]) is given as “greater effects”. The TG level result with C57BL/6J mice [4] (plasma, HFD mice, DHB i.p. 50 or 100 mg/kg daily for 6 weeks, relative to mice without DHB, FIG. 1) is “lower levels”. Besides, in the data set with C57BL/6J mice [4] (plasma, HFD mice, DHB i.p. 50 or 100 mg/kg daily for 6 weeks, relative to mice without DHB, FIG. 2), the TC level result is recorded as “lower levels”. Moreover, in the data set with C57BL/6J mice [4] (plasma, HFD mice, DHB i.p. 50 or 100 mg/kg daily for 6 weeks, relative to mice without DHB, FIG. 3), the LDL level entry is listed as “lower levels”. For the same compound, the VLDL level entry with C57BL/6J mice [4] (plasma, HFD mice, DHB i.p. 50 or 100 mg/kg daily for 6 weeks, relative to mice without DHB, FIG. 4) is “lower levels”. Besides, the “tolerance to a glucose load (i.p. glucose tolerance test)” value with C57BL/6J mice [5] is on record as “better tolerance to a glucose load”. Moreover, the “total accumulated amount of 18F-FDG in BAT” value in the data set with BAT was “increase the accumulated amount”. The “browning of white fat, higher dose than lower dose” value in the data set with UCP1 and PGC-1α (setting [9]) is listed as “greater effects”. For the same compound, in the data set on UCP1 and PGC-1α (setting [10]), the “PGC-1α mRNA level” value is reported as “higher levels” and the “UCP1 mRNA level” value is recorded as “higher levels”. The “absorption relative to BBR” value in [6] is “better absorbed”. In addition, the “BAT thermogenesis and energy expenditure, higher dose than lower dose” value with C57BL/6J mice [7] (setting [9]) is given as “greater effects”. Also, the “BAT thermogenesis and energy expenditure” value with C57BL/6J mice [7] (24 h period, FIG. 13) is on record as “beneficial effects”. The “oxygen consumption (VO2) rate” value in the data set with C57BL/6J mice [7] (through a 12-h light/dark cycle, 24 h period, 24° C., FIG. 11) is given as “markedly higher”. For the same compound, the “carbon dioxide production (VCO2) rate” value with C57BL/6J mice [7] (through a 12-h light/dark cycle, 24 h period, 24° C., FIG. 12) is reported as “markedly higher”. For the same compound, the “body weight (weight gain)” value in the data set on C57BL/6J mice [8] (group 2 and 3 (50 and 100 mg/kg), 6 weeks of treatment, week 9 to 14, FIG. 7) is listed as “obviously protected from weight gain”. Further, the “fat mass percentage (fat accumulation)” value in the data set on C57BL/6J mice [8] (group 3 (100 mg/kg), 9th and 14th week, FIG. 8) is “inhibited fat accumulation better”. Further, the body fat percentage result in the data set with C57BL/6J mice [8] (relative to mice without DHB supplementation) is “decreases body fat percentage”. Moreover, in the data set on UCP1, PRDM16 and PGC-1α, the “expression of PGC-1α” value is given as “increase the expression”, the “expression of PRDM16” value is “increase the expression” and the “expression of UCP1” value is listed as “increase the expression”.
Consider `COc1ccc2cc3[n+](cc2c1OC)CCc1cc2c(cc1-3)OCO2` [BBR, berberine], for which the “brown adipocyte differentiation and BAT thermogenesis” value in the data set on brown adipocyte is “promote”. Moreover, in the data set with obese db/db mice, the “energy expenditure and adaptive thermogenesis” value is “increase”; the “thermogenic program in BAT” value is “promote the thermogenic program in BAT”; the weight gain result was “reduce weight gain”.

The values are drawn from patent publication US20250375430A1, “USE OF DIHYDROBERBERINE TO PROMOTE RECRUITMENT AND ACTIVATION OF BROWN ADIPOSE TISSUES” (NANJING NUTRABUILDING BIO-TECH CO., LTD., priority 2023, published 2025).
